Experimental data from patent publication US20090123397A1, “Microbiocidal compositions” (Thor Specialities (UK) Limited, priority 2005, published 2009).
One block for each compound: values may come before it.

Tests used:
Aspergillus Niger [1] = assay: Efficacy of C5 alkane diols vs. C8 alkane diols; type: cell-based; set-up: key: + = no growth inhibition; − = growth inhibition
Description: (§1) Tables VIIIA to VIIID—Efficacy of C5 alkane diols vs. C8 alkane diols. […] Tables VIIIA to VIIID above illustrate the results of tests of the efficacy of octane diol compared to pentane diol on various organisms. These tests were carried out in a similar manner to those described above. The percentages at the top line of each table indicate the amount of diol used by weight in the preservative mixture.

Candida albicans [2] = assay: Efficacy of C5 alkane diols vs. C8 alkane diols; type: cell-based; set-up: key: + = no growth inhibition; − = growth inhibition
Description: as §1

Pseudomonas aeruginosa [3] = assay: Efficacy of C5 alkane diols vs. C8 alkane diols; type: cell-based; set-up: key: + = no growth inhibition; − = growth inhibition
Description: as §1

Staphylococcus aureus [4] = assay: Efficacy of C5 alkane diols vs. C8 alkane diols; type: cell-based; set-up: key: + = no growth inhibition; − = growth inhibition
Description: as §1

Pseudomonas aeruginosa [5] = assay: MIC / growth test of MIT and CAG mixtures in Müller-Hinton broth; type: cell-based, Pseudomonas aeruginosa ATCC 9027; set-up: key to growth of the micro-organism: growth of the micro-organism took place (symbol “+”); or not (symbol “−”); settings: 72 h
Description: (§2) For this purpose, aqueous mixtures were produced with various concentrations of 2-methylisothiazolin-3-one (MIT) and caprylyl glycol (CAG) and the activity of these mixtures were tested on the micro-organisms listed in Table VI.
(§3) In addition to the active component(s) and water, the aqueous mixtures contained a nutrient medium, namely a Müller-Hinton broth (Manufacturer: Oxoid; product code CM405). The incubation time was 72 h at 25° C. (bacterial and yeast) or 7 days at 25° C. (mould). Each sample was incubated on an incubation shaker at 105 rpm.
(§4) The tables also show whether growth of the micro-organism took place (symbol “+”) or not (symbol “−”).
(§5) Tables I to V also show the minimum inhibition concentrations (MIC).
(§6) The synergy index is calculated according to the method of F. C. Kull et al., Applied Microbiology, Vol. 9 (1961), p. 538. Here the synergy index is calculated using the following formula:
(§7) Synergy index=Qa/QA+Qb/QB
(§8) When this formula is used on the biocide system tested here, the quantities in the formula have the following meaning: • Qa=MIC of MIT in the preservative mixture of MIT and CAG • QA=MIC of MIT as sole ingredient • Qb=MIC of CAG in the preservative mixture of MIT and CAG • QB=MIC of CAG as sole ingredient
(§9) When the synergy index has the value 1, this means that there is an addition of the activity of the two ingredients. When the synergy index has a value of less than 1, this means that a synergy of the two ingredients exists.

Staphylococcus aureus [6] = assay: as above; type: cell-based, Staphylococcus aureus ATCC 6538; set-up: key to growth of the micro-organism: growth of the micro-organism took place (symbol “+”); or not (symbol “−”); settings: 72 h
Description: as §2, §3, §4, §5, §6, §7, §8, §9

Enterococcus faecalis = assay: as above; type: cell-based, Enterococcus faecalis NCIMB 12756; set-up: key to growth of the micro-organism: growth of the micro-organism took place (symbol “+”); or not (symbol “−”); settings: 72 h
Description: as §2, §3, §4, §5, §6, §7, §8, §9

Aspergillus niger [7] = assay: as above; type: cell-based, Aspergillus niger IMI 149007; set-up: key to growth of the micro-organism: growth of the micro-organism took place (symbol “+”); or not (symbol “−”); settings: 5 days
Description: as §2
In addition to the active component(s) and water, the aqueous mixtures contained a nutrient medium, namely a Müller-Hinton broth (Manufacturer: Oxoid; product code CM405). […] (mould). Each sample was incubated on an incubation shaker at 105 rpm.
as §4, §5, §6, §7, §8, §9

Candida albicans [8] = assay: as above; type: cell-based, Candida albicans NCPF 3179; set-up: key to growth of the micro-organism: growth of the micro-organism took place (symbol “+”); or not (symbol “−”); settings: 72 h
Description: as §2, §3, §4, §5, §6, §7, §8, §9

SMILES: CCCC(O)CO (stereo not drawn) [1,2 Pentane diol, reference compound]
- growth inhibition (Aspergillus Niger [1]; diol 0.2% by weight): +
- growth inhibition (Aspergillus Niger [1]; diol 0.4% by weight): +
- growth inhibition (Aspergillus Niger [1]; diol 0.6% by weight): +
- growth inhibition (Aspergillus Niger [1]; diol 0.8% by weight): +
- growth inhibition (Aspergillus Niger [1]; diol 1.0% by weight): +
- growth inhibition (Candida albicans [2]; diol 0.2% by weight): +
- growth inhibition (Candida albicans [2]; diol 0.4% by weight): +
- growth inhibition (Candida albicans [2]; diol 0.6% by weight): +
- growth inhibition (Candida albicans [2]; diol 0.8% by weight): +
- growth inhibition (Candida albicans [2]; diol 1.0% by weight): +
- growth inhibition (Pseudomonas aeruginosa [3]; diol 0.2% by weight): +
- growth inhibition (Pseudomonas aeruginosa [3]; diol 0.4% by weight): +
- growth inhibition (Pseudomonas aeruginosa [3]; diol 0.6% by weight): +
- growth inhibition (Pseudomonas aeruginosa [3]; diol 0.8% by weight): +
- growth inhibition (Pseudomonas aeruginosa [3]; diol 1.0% by weight): +
- growth inhibition (Staphylococcus aureus [4]; diol 0.2% by weight): +
- growth inhibition (Staphylococcus aureus [4]; diol 0.4% by weight): +
- growth inhibition (Staphylococcus aureus [4]; diol 0.6% by weight): +
- growth inhibition (Staphylococcus aureus [4]; diol 0.8% by weight): +
- growth inhibition (Staphylococcus aureus [4]; diol 1.0% by weight): +

SMILES: CCCCCCC(O)CO (stereo not drawn) [1,2-Octane diol]
- growth inhibition (Aspergillus Niger [1]; diol 0.2% by weight): −
- growth inhibition (Aspergillus Niger [1]; diol 0.4% by weight): −
- growth inhibition (Aspergillus Niger [1]; diol 0.6% by weight): −
- growth inhibition (Aspergillus Niger [1]; diol 0.8% by weight): −
- growth inhibition (Aspergillus Niger [1]; diol 1.0% by weight): −
- growth inhibition (Candida albicans [2]; diol 0.2% by weight): +
- growth inhibition (Candida albicans [2]; diol 0.4% by weight): −
- growth inhibition (Candida albicans [2]; diol 0.6% by weight): −
- growth inhibition (Candida albicans [2]; diol 0.8% by weight): −
- growth inhibition (Candida albicans [2]; diol 1.0% by weight): −
- growth inhibition (Pseudomonas aeruginosa [3]; diol 0.2% by weight): +
- growth inhibition (Pseudomonas aeruginosa [3]; diol 0.4% by weight): −
- growth inhibition (Pseudomonas aeruginosa [3]; diol 0.6% by weight): −
- growth inhibition (Pseudomonas aeruginosa [3]; diol 0.8% by weight): −
- growth inhibition (Pseudomonas aeruginosa [3]; diol 1.0% by weight): −
- growth inhibition (Staphylococcus aureus [4]; diol 0.2% by weight): −
- growth inhibition (Staphylococcus aureus [4]; diol 0.4% by weight): −
- growth inhibition (Staphylococcus aureus [4]; diol 0.6% by weight): −
- growth inhibition (Staphylococcus aureus [4]; diol 0.8% by weight): −
- growth inhibition (Staphylococcus aureus [4]; diol 1.0% by weight): −

- QB (CAG): MIC of CAG as sole ingredient (Pseudomonas aeruginosa [5]): 4000 ppm
- QB (CAG): MIC of CAG as sole ingredient (Staphylococcus aureus [6]): 1000 ppm
- QB (CAG): MIC of CAG as sole ingredient (Enterococcus faecalis): 2000 ppm
- QB (CAG): MIC of CAG as sole ingredient (Aspergillus niger [7]): 2000 ppm
- QB (CAG): MIC of CAG as sole ingredient (Candida albicans [8]): 3000 ppm
SMILES: CCCCCCC(O)CO (stereo not drawn) [CAG, caprylyl glycol]
- growth of the micro-organism (Pseudomonas aeruginosa [5]; MIT 0 ppm, CAG 500 ppm): +
- growth of the micro-organism (Pseudomonas aeruginosa [5]; MIT 0 ppm, CAG 1000 ppm): +
- growth of the micro-organism (Pseudomonas aeruginosa [5]; MIT 0 ppm, CAG 2000 ppm): +
- growth of the micro-organism (Pseudomonas aeruginosa [5]; MIT 0 ppm, CAG 3000 ppm): +
- growth of the micro-organism (Pseudomonas aeruginosa [5]; MIT 0 ppm, CAG 4000 ppm): −
- growth of the micro-organism (Staphylococcus aureus [6]; MIT 0 ppm, CAG 500 ppm): +
- growth of the micro-organism (Staphylococcus aureus [6]; MIT 0 ppm, CAG 1000 ppm): −
- growth of the micro-organism (Staphylococcus aureus [6]; MIT 0 ppm, CAG 2000 ppm): −
- growth of the micro-organism (Staphylococcus aureus [6]; MIT 0 ppm, CAG 3000 ppm): −
- growth of the micro-organism (Staphylococcus aureus [6]; MIT 0 ppm, CAG 4000 ppm): −
- growth of the micro-organism (Enterococcus faecalis; MIT 0 ppm, CAG 500 ppm): +
- growth of the micro-organism (Enterococcus faecalis; MIT 0 ppm, CAG 1000 ppm): +
- growth of the micro-organism (Enterococcus faecalis; MIT 0 ppm, CAG 2000 ppm): −
- growth of the micro-organism (Enterococcus faecalis; MIT 0 ppm, CAG 3000 ppm): −
- growth of the micro-organism (Enterococcus faecalis; MIT 0 ppm, CAG 4000 ppm): −
- growth of the micro-organism (Aspergillus niger [7]; MIT 0 ppm, CAG 500 ppm): +
- growth of the micro-organism (Aspergillus niger [7]; MIT 0 ppm, CAG 1000 ppm): +
- growth of the micro-organism (Aspergillus niger [7]; MIT 0 ppm, CAG 2000 ppm): −
- growth of the micro-organism (Aspergillus niger [7]; MIT 0 ppm, CAG 3000 ppm): −
- growth of the micro-organism (Aspergillus niger [7]; MIT 0 ppm, CAG 4000 ppm): −
- growth of the micro-organism (Candida albicans [8]; MIT 0 ppm, CAG 500 ppm): +
- growth of the micro-organism (Candida albicans [8]; MIT 0 ppm, CAG 1000 ppm): +
- growth of the micro-organism (Candida albicans [8]; MIT 0 ppm, CAG 2000 ppm): +
- growth of the micro-organism (Candida albicans [8]; MIT 0 ppm, CAG 3000 ppm): −
- growth of the micro-organism (Candida albicans [8]; MIT 0 ppm, CAG 4000 ppm): −

SMILES: Cn1sccc1=O [MIT, 2-methylisothiazolin-3-one]
- QA (MIT): MIC of MIT as sole ingredient (Pseudomonas aeruginosa [5]): 25 ppm
- growth of the micro-organism (Pseudomonas aeruginosa [5]; MIT 10 ppm, CAG 0 ppm): +
- growth of the micro-organism (Pseudomonas aeruginosa [5]; MIT 25 ppm, CAG 0 ppm): −
- growth of the micro-organism (Pseudomonas aeruginosa [5]; MIT 37.5 ppm, CAG 0 ppm): −
- growth of the micro-organism (Pseudomonas aeruginosa [5]; MIT 50 ppm, CAG 0 ppm): −
- growth of the micro-organism (Pseudomonas aeruginosa [5]; MIT 75 ppm, CAG 0 ppm): −
- QA (MIT): MIC of MIT as sole ingredient (Staphylococcus aureus [6]): 25 ppm
- growth of the micro-organism (Staphylococcus aureus [6]; MIT 10 ppm, CAG 0 ppm): +
- growth of the micro-organism (Staphylococcus aureus [6]; MIT 25 ppm, CAG 0 ppm): −
- growth of the micro-organism (Staphylococcus aureus [6]; MIT 37.5 ppm, CAG 0 ppm): −
- growth of the micro-organism (Staphylococcus aureus [6]; MIT 50 ppm, CAG 0 ppm): −
- growth of the micro-organism (Staphylococcus aureus [6]; MIT 75 ppm, CAG 0 ppm): −
- QA (MIT): MIC of MIT as sole ingredient (Enterococcus faecalis): 75 ppm
- growth of the micro-organism (Enterococcus faecalis; MIT 10 ppm, CAG 0 ppm): +
- growth of the micro-organism (Enterococcus faecalis; MIT 25 ppm, CAG 0 ppm): +
- growth of the micro-organism (Enterococcus faecalis; MIT 37.5 ppm, CAG 0 ppm): +
- growth of the micro-organism (Enterococcus faecalis; MIT 50 ppm, CAG 0 ppm): +
- growth of the micro-organism (Enterococcus faecalis; MIT 75 ppm, CAG 0 ppm): −
- QA (MIT): MIC of MIT as sole ingredient (Aspergillus niger [7]): 300 ppm
- growth of the micro-organism (Aspergillus niger [7]; MIT 10 ppm, CAG 0 ppm): +
- growth of the micro-organism (Aspergillus niger [7]; MIT 25 ppm, CAG 0 ppm): +
- growth of the micro-organism (Aspergillus niger [7]; MIT 37.5 ppm, CAG 0 ppm): +
- growth of the micro-organism (Aspergillus niger [7]; MIT 50 ppm, CAG 0 ppm): +
- growth of the micro-organism (Aspergillus niger [7]; MIT 75 ppm, CAG 0 ppm): +
- growth of the micro-organism (Aspergillus niger [7]; MIT 100 ppm, CAG 0 ppm): +
- growth of the micro-organism (Aspergillus niger [7]; MIT 200 ppm, CAG 0 ppm): +
- growth of the micro-organism (Aspergillus niger [7]; MIT 300 ppm, CAG 0 ppm): −
- QA (MIT): MIC of MIT as sole ingredient (Candida albicans [8]): 200 ppm
- growth of the micro-organism (Candida albicans [8]; MIT 10 ppm, CAG 0 ppm): +
- growth of the micro-organism (Candida albicans [8]; MIT 25 ppm, CAG 0 ppm): +
- growth of the micro-organism (Candida albicans [8]; MIT 37.5 ppm, CAG 0 ppm): +
- growth of the micro-organism (Candida albicans [8]; MIT 50 ppm, CAG 0 ppm): +
- growth of the micro-organism (Candida albicans [8]; MIT 75 ppm, CAG 0 ppm): +
- growth of the micro-organism (Candida albicans [8]; MIT 100 ppm, CAG 0 ppm): +
- growth of the micro-organism (Candida albicans [8]; MIT 200 ppm, CAG 0 ppm): −
